Earlier results as cited in patent US20180311274A1, “IN SITU NEUTRALIZATION COMPOSITION” (Kramer Laboratories, Inc., priority 2017, published 2018).

For Cc1cccc(N(C)C(=S)Oc2ccc3ccccc3c2)c1 [Tolnaftate], the solubility in water is listed as “practically insoluble”.
